Converted amounts (≈) assume the structure as drawn.
How the values were obtained:
[1] = test system: M. tuberculosis inside the host macrophage; test: QIM: Quantification of Intracellular Mycobacteria (intracellular growth assay, phenotypic cell-based); conditions: Mycobacterium tuberculosis; MIC, 80% bacterial growth inhibition; intracellular growth; read-out: QIM
Summary of the method: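 Phenotypic high-content assay measuring M. tuberculosis multiplication inside host macrophages, run as dose response. MIC is the minimum compound concentration giving 80% bacterial growth inhibition.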

[2] = test system: in vitro grown Mycobacteria (M. tuberculosis); test: QUM: Quantification of in vitro grown Mycobacteria (in vitro growth fluorescence assay); assay type: cell-based; conditions: Mycobacterium tuberculosis; MIC, 80% bacterial growth inhibition; in vitro growth; read-out: QUM
Summary of the method: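 Mycobacterium tuberculosis grown in vitro was quantified by fluorescence across compound dose responses. MIC is defined as the minimum concentration producing 80% growth inhibition.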

## CCc1nc2cc(C)ccn2c1C(=O)NCc1ccc2ccccc2c1 [Compound 69, 2-Ethyl-7-methyl-N-(naphthalen-2-ylmethyl)imidazo[1,2-a]pyridine-3-carboxamide]
[1]
  MIC: < 1 µM
other
  melting point: 192 °C
[2]
  MIC: 1 to 20 µM (≈ 0.343 to 6.87 µg/mL)

## CCc1nc2ccc(Cl)cn2c1C(=O)OCc1ccc(-c2ccccc2)cc1 [Compound 161, [1,1′-Biphenyl]-4-ylmethyl 6-chloro-2-ethylimidazo[1,2-a]pyridine-3-carboxylate]
[1]
  MIC: < 1 µM
other
  melting point: 122.3 to 123 °C
[2]
  MIC: < 1 µM

## CCc1nc2cc(Cl)ccn2c1C(=O)NCc1ccc(N2CCC(COc3ccc(F)cc3)CC2)cc1 [Compound 297, 7-Chloro-2-ethyl-N-(4-(4-((4-fluorophenoxy)methyl)piperidin-1-yl)benzyl)imidazo[1,2-a]pyridine-3-carboxamide]
[1]
  MIC: < 1 µM
other
  melting point: 186.5 °C
[2]
  MIC: < 1 µM

## CCNC(=O)c1c(CC)nc2ccc(Cl)cn12 [Compound 246, 6-Chloro-N,2-diethylimidazo[1,2-a]pyridine-3-carboxamide]
other
  melting point: 176.7 °C
[2]
  MIC: > 20 µM

## CCc1nc2ccccn2c1C(=O)NCc1ccc(N2CCC(c3ccc(OC(F)(F)F)cc3)CC2)cc1 [Compound 288, 2-Ethyl-N-(4-(4-(4-(trifluoromethoxy)phenyl)piperidin-1-yl)benzyl)imidazo[1,2-a]pyridine-3-carboxamide]
other
  melting point: 146 °C
[2]
  MIC: < 1 µM

## C=C1CCN(c2ccc(CNC(=O)c3c(CC)nc4cc(Cl)ccn34)cc2)CC1 [Compound 271, 7-Chloro-2-ethyl-N-(4-(4-methylenepiperidin-1-yl)benzyl)imidazo[1,2-a]pyridine-3-carboxamide]
other
  melting point: 168.3 °C
[2]
  MIC: < 1 µM

## CCc1nc2cc(Cl)ccn2c1C(=O)NCc1ccc(N2CCC(COc3ccc(OC(F)(F)F)cc3)CC2)cc1 [Compound 299, 7-Chloro-2-ethyl-N-(4-(4-((4-(trifluoromethoxy)phenoxy)methyl)piperidin-1-yl)benzyl)imidazo[1,2-a]pyridine-3-carboxamide]
other
  melting point: 189.5 °C
[2]
  MIC: < 1 µM

## CCc1nc2cc(Cl)ccn2c1C(=O)NCc1ccc(N2CCC(F)(F)CC2)cc1 [Compound 278, 7-Chloro-N-(4-(4,4-difluoropiperidin-1-yl)benzyl)-2-ethylimidazo[1,2-a]pyridine-3-carboxamide]
other
  melting point: 166.3 °C
[2]
  MIC: 1 to 20 µM (≈ 0.433 to 8.66 µg/mL)

## CCc1nc2cc(Cl)ccn2c1C(=O)NCc1ccc(N2CCC(c3ccccc3)CC2)cc1 [Compound 283, 7-Chloro-2-ethyl-N-(4-(4-phenylpiperidin-1-yl)benzyl)imidazo[1,2-a]pyridine-3-carboxamide]
other
  melting point: 164.5 °C
[2]
  MIC: < 1 µM

## CCc1nc2cc(Cl)ccn2c1C(=O)NCc1ccc(N2CCN3CCCC3C2)cc1 (stereo not shown) [Compound 265, 7-Chloro-2-ethyl-N-(4-(hexahydropyrrolo[1,2-a]pyrazin-2(1H)-yl)benzyl)imidazo[1,2-a]pyridine-3-carboxamide]
other
  melting point: 159.1 °C
[2]
  MIC: > 20 µM

## CCc1nc2ccc(Cl)cn2c1C(=O)NCc1ccc(N2CCC(F)(F)CC2)cc1 [Compound 277, 6-chloro-N-(4-(4,4-difluoropiperidin-1-yl)benzyl)-2-ethylimidazo[1,2-a]pyridine-3-carboxamide]
other
  melting point: 194.2 °C
[2]
  MIC: 1 to 20 µM (≈ 0.433 to 8.66 µg/mL)

## CCc1nc2ccc(Cl)cn2c1C(=O)NCc1ccc(N2CCC(C(F)(F)F)CC2)cc1 [Compound 275, 6-Chloro-2-ethyl-N-(4-(4-(trifluoromethyl)piperidin-1-yl)benzyl)imidazo[1,2-a]pyridine-3-carboxamide]
other
  melting point: 197.9 °C
[2]
  MIC: 1 to 20 µM (≈ 0.465 to 9.3 µg/mL)

## CCc1nc2cc(Cl)ccn2c1C(=O)NCc1ccc(N2CCC(Cc3ccccc3)CC2)cc1 [Compound 294, N-(4-(4-Benzylpiperidin-1-yl)benzyl)-7-chloro-2-ethylimidazo[1,2-a]pyridine-3-carboxamide]
other
  melting point: 63.8 °C
[2]
  MIC: 1 to 20 µM (≈ 0.487 to 9.74 µg/mL)

## CCc1nc2ccc(Cl)cn2c1-c1nc(Cc2ccc(Oc3ccc(F)cc3)cc2)no1 [Compound 245, 5-(6-Chloro-2-ethylimidazo[1,2-a]pyridin-3-yl)-3-(4-(4-fluorophenoxy)benzyl)-1,2,4-oxadiazole]
other
  melting point: 129.9 °C
[2]
  MIC: 1 to 20 µM (≈ 0.449 to 8.98 µg/mL)

## CCc1nc2cc(Cl)ccn2c1C(=O)NCc1ccc(N2CCC(C(F)(F)F)CC2)cc1 [Compound 276, 7-Chloro-2-ethyl-N-(4-(4-(trifluoromethyl)piperidin-1-yl)benzyl)imidazo[1,2-a]pyridine-3-carboxamide]
other
  melting point: 209.4 °C
[2]
  MIC: > 20 µM

## CCc1nc2ccc(Cl)cn2c1C(=O)NCc1ccc(N2CCC(CO)CC2)cc1 [Compound 279, 6-Chloro-2-ethyl-N-(4-(4-(hydroxymethyl)piperidin-1-yl)benzyl)imidazo[1,2-a]pyridine-3-carboxamide]
other
  melting point: 161.1 °C
[2]
  MIC: > 20 µM

## CCc1nc2ccc(Cl)cn2c1C(=O)NCc1ccc(N2CCOCC2)c(Cl)c1 [Compound 349, 6-Chloro-N-(3-chloro-4-morpholinobenzyl)-2-ethylimidazo[1,2-a]pyridine-3-carboxamide]
other
  melting point: 175.5 °C
[2]
  MIC: < 1 µM

## CCc1nc2ccc(Cl)cn2c1C(=O)NCc1ccc(N2CCC(O)(c3ccc(F)cc3)CC2)cc1 [Compound 341, 6-Chloro-2-ethyl-N-(4-(4-(4-fluorophenyl)-4-hydroxypiperidin-1-yl)benzyl)imidazo[1,2-a]pyridine-3-carboxamide]
other
  melting point: 173.5 °C
[2]
  MIC: < 1 µM

## CCc1nc2c(OC(F)F)cccn2c1C(=O)NCc1ccc(N2CCN(c3ccc(F)cc3)CC2)cc1 [Compound 304, 8-(Difluoromethoxy)-2-ethyl-N-(4-(4-(4-fluorophenyl)piperazin-1-yl)benzyl)imidazo[1,2-a]pyridine-3-carboxamide]
other
  melting point: 186.3 °C
[2]
  MIC: < 1 µM

## CCc1nc2ccc(Cl)cn2c1C(=O)NCc1ccc(N2CCN3CCCC3C2)cc1 (stereo not shown) [Compound 266, 6-Chloro-2-ethyl-N-(4-(hexahydropyrrolo[1,2-a]pyrazin-2(1H)-yl)benzyl)imidazo[1,2-a]pyridine-3-carboxamide]
other
  melting point: 163 °C
[2]
  MIC: > 20 µM

## CCc1nc2ccc(Br)cn2c1C(=O)NCc1ccc(OCc2ccc(OC(F)(F)F)cc2)cc1 [Compound 259, 6-Bromo-2-ethyl-N-(4-(4-(trifluoromethoxy)benzyloxy)benzyl)imidazo[1,2-a]pyridine-3-carboxamide]
other
  melting point: 189.7 °C
[2]
  MIC: < 1 µM

## CCc1nc2c(C(F)(F)F)cccn2c1C(=O)NCc1ccc(N2CCOCC2)cc1 [Compound 323, 2-Ethyl-N-(4-morpholinobenzyl)-8-(trifluoromethyl)imidazo[1,2-a]pyridine-3-carboxamide]
other
  melting point: 200.6 °C
[2]
  MIC: 1 to 20 µM (≈ 0.432 to 8.65 µg/mL)

## CCc1nc2ccccn2c1C(=O)NCc1ccc(OCc2ccc(OC(F)(F)F)cc2)cc1 [Compound 260, 2-Ethyl-N-(4-(4-(trifluoromethoxy)benzyloxy)benzyl)imidazo[1,2-a]pyridine-3-carboxamide]
other
  melting point: 138.7 °C
[2]
  MIC: < 1 µM

## CCc1nc2cc(Cl)ccn2c1C(=O)NCc1ccc2oc(C3CCCCC3)nc2c1 [Compound 340, 7-Chloro-N-((2-cyclohexylbenzo[d]oxazol-5-yl)methyl)-2-ethylimidazo[1,2-a]pyridine-3-carboxamide]
other
  melting point: 163 °C
[2]
  MIC: < 1 µM

## CCc1nc2ccc(Br)cn2c1C(=O)NCc1ccc(Oc2ccc(OC(F)(F)F)cc2)cc1 [Compound 254, 6-Bromo-2-ethyl-N-(4-(4-(trifluoromethoxy)phenoxy)benzyl)imidazo[1,2-a]pyridine-3-carboxamide]
other
  melting point: 152.9 °C
[2]
  MIC: < 1 µM

## CCc1nc2cc(C(F)(F)F)ccn2c1C(=O)NCc1ccc(N2CCOCC2)cc1 [Compound 322, 2-Ethyl-N-(4-morpholinobenzyl)-7-(trifluoromethyl)imidazo[1,2-a]pyridine-3-carboxamide]
other
  melting point: 174.1 °C
[2]
  MIC: 1 to 20 µM (≈ 0.432 to 8.65 µg/mL)

## CCc1nc2ccc(Cl)cn2c1C(=O)NCc1ccc2oc(C3CCCCC3)nc2c1 [Compound 339, 6-Chloro-N-((2-cyclohexylbenzo[d]oxazol-5-yl)methyl)-2-ethylimidazo[1,2-a]pyridine-3-carboxamide]
other
  melting point: 169.7 °C
[2]
  MIC: < 1 µM

## CCc1nc2cc(Cl)ccn2c1C(=O)NCc1ccc(N2CCC(c3ccc(Cl)cc3)CC2)cc1 [Compound 338, 7-Chloro-N-(4-(4-(4-chlorophenyl)piperidin-1-yl)benzyl)-2-ethylimidazo[1,2-a]pyridine-3-carboxamide]
other
  melting point: 177 °C
[2]
  MIC: < 1 µM

## CCc1nc2ccc(OC)cn2c1C(=O)NCc1ccc(N2CCN(c3ccc(F)cc3)CC2)cc1 [Compound 112, 2-Ethyl-N-(4-(4-(4-fluorophenyl)piperazin-1-yl)benzyl)-6-methoxyimidazo[1,2-a]pyridine-3-carboxamide]
other
  melting point: 173.8 °C
[2]
  MIC: < 1 µM

## CCc1nc2ccc(Cl)cn2c1C(=O)NCc1ccc(N2CCC(COc3ccc(OC(F)(F)F)cc3)CC2)cc1 [Compound 298, 6-chloro-2-ethyl-N-(4-(4-((4-(trifluoromethoxy)phenoxy)methyl)piperidin-1-yl)benzyl)imidazo[1,2-a]pyridine-3-carboxamide]
other
  melting point: 183.6 °C
[2]
  MIC: < 1 µM

## CCc1nc2cc(Cl)ccn2c1C(=O)NCc1ccc(N2CCC(C)(C)CC2)cc1 [Compound 274]
other
  melting point: 121.3 °C
[2]
  MIC: < 1 µM

## CCc1nc2cc(Cl)ccn2c1C(=O)NCc1ccc(N2CCC(C(N)=O)CC2)cc1 [Compound 344, N-(4-(4-Carbamoylpiperidin-1-yl)benzyl)-7-chloro-2-ethylimidazo[1,2-a]pyridine-3-carboxamide]
other
  melting point: 244 °C
[2]
  MIC: 1 to 20 µM (≈ 0.44 to 8.8 µg/mL)
